Legend:
Assay in all cases: relative viability (nuclei count vs DMSO), 5 days (fraction); higher = more cells survive
RO-3306 + Pemetrexed = compound: C1=CC2=C(C=CC(=C2)C=C3C(=O)NC(=NCC4=CC=CS4)S3)N=C1 [RO-3306] + Nc1nc2[nH]cc(CCc3ccc(C(=O)N[C@@H](CCC(=O)O)C(=O)O)cc3)c2c(=O)[nH]1 [Pemetrexed] (partner 0.2 µM)
Procedure, shortened: (§1)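 Lung cancer cell lines, seeded in 1536-well plates, were treated the following day by pin tool with a single drug or with five library-drug doses (not always all listed) in √10 steps on top of a fixed anchor-drug dose. Cells were fixed and nuclei stained in one step after 5 days, and nuclei were counted. Relative viability is the nuclei count for treated wells divided by that for vehicle wells, reported as medians of duplicate plates.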

RO-3306 + Dasatinib = compound: C1=CC2=C(C=CC(=C2)C=C3C(=O)NC(=NCC4=CC=CS4)S3)N=C1 [RO-3306] + Cc1nc(Nc2ncc(C(=O)Nc3c(C)cccc3Cl)s2)cc(N2CCN(CCO)CC2)n1 [Dasatinib] (partner 0.075 µM)
Procedure, shortened: as §1

[1] = compound: O=S(=O)(c1ccccc1)N(CC(F)(F)F)c1ccc(C(O)(C(F)(F)F)C(F)(F)F)cc1 + Cc1nc(Nc2ncc(C(=O)Nc3c(C)cccc3Cl)s2)cc(N2CCN(CCO)CC2)n1 [Dasatinib] (partner 0.075 µM)
Procedure, shortened: as §1

RO-3306 + Trametinib = compound: C1=CC2=C(C=CC(=C2)C=C3C(=O)NC(=NCC4=CC=CS4)S3)N=C1 [RO-3306] + CC(=O)Nc1cccc(-n2c(=O)n(C3CC3)c(=O)c3c(Nc4ccc(I)cc4F)n(C)c(=O)c(C)c32)c1 [Trametinib] (partner 0.02 µM)
Procedure, shortened: as §1

Cell Line | relative viability (RO-3306 + Pemetrexed; first compound 0.01 µM) | relative viability (RO-3306 + Pemetrexed; first compound 0.03162 µM) | relative viability (RO-3306 + Pemetrexed; first compound 0.1 µM) | relative viability (RO-3306 + Pemetrexed; first compound 0.3162 µM) | relative viability (RO-3306 + Pemetrexed; first compound 1 µM) | relative viability (RO-3306 + Dasatinib; first compound 0.01 µM) | relative viability (RO-3306 + Dasatinib; first compound 0.03162 µM) | relative viability (RO-3306 + Dasatinib; first compound 0.1 µM) | relative viability (RO-3306 + Dasatinib; first compound 0.3162 µM) | relative viability (RO-3306 + Dasatinib; first compound 1 µM) | relative viability ([1]; first compound 0.8 µM) | relative viability ([1]; first compound 2.53 µM) | relative viability ([1]; first compound 8 µM) | relative viability (RO-3306 + Trametinib; first compound 0.01 µM) | relative viability (RO-3306 + Trametinib; first compound 0.03162 µM) | relative viability (RO-3306 + Trametinib; first compound 0.1 µM) | relative viability (RO-3306 + Trametinib; first compound 0.3162 µM) | relative viability (RO-3306 + Trametinib; first compound 1 µM)
NCI-H520 | 0.811 | 0.67 | 0.714 | 0.646 | 0.727 | 0.168 | 0.195 | 0.178 | 0.195 | 0.162 | 0.235 | 0.211 | 0.26 | 0.896 | 0.629 | 0.569 | 0.714 | 0.756
NCI-H1944 | 0.794 | 0.63 | 0.663 | 0.611 | 0.671 | 0.209 | 0.212 | 0.206 | 0.223 | 0.217 | 0.222 | 0.233 | 0.191 | 0.387 | 0.403 | 0.428 | 0.445 | 0.41
NCI-H1395 | 0.678 | 0.751 | 0.728 | 0.726 | 0.549 | 0.4 | 0.494 | 0.372 | 0.409 | 0.587 | 0.321 | 0.375 | 0.414 | 1.24 | 0.983 | 0.886 | 1.1 | 0.916
NCI-H2009 | 1.11 | 1.12 | 1.05 | 0.988 | 1.01 | 0.279 | 0.267 | 0.265 | 0.293 | 0.277 | 0.241 | 0.249 | 0.302 | 0.283 | 0.272 | 0.247 | 0.273 | 0.254
RERF-LC-KJ | 0.515 | 0.48 | 0.493 | 0.459 | 0.449 | 0.919 | 0.667 | 0.907 | 0.881 | 0.915 | 0.753 | 0.652 | 0.641 | 0.914 | 0.907 | 0.862 | 0.881 | 0.935
NCI-H650 | 0.958 | 0.883 | 0.868 | 0.986 | 0.983 | 0.429 | 0.421 | 0.393 | 0.479 | 0.421 | 0.368 | 0.425 | 0.479 | 0.981 | 0.939 | 0.921 | 1.1 | 0.941
NCI-H3122 | 0.203 | 0.193 | 0.456 | 0.195 | 0.197 | 0.823 | 0.751 | 0.835 | 0.787 | 0.857 | 0.725 | 0.525 | 0.817 | 0.241 | 0.223 | 0.26 | 0.237 | 0.227
LCLC-103H | 0.474 | 0.461 | 0.448 | 0.457 | 0.464 | 0.472 | 0.478 | 0.44 | 0.401 | 0.385 | 0.553 | 0.484 | 0.51 | 0.728 | 0.665 | 0.739 | 0.634 | 0.689
NCI-H2347 | 0.44 | 0.37 | 0.428 | 0.433 | 0.437 | 0.296 | 0.285 | 0.285 | 0.284 | 0.283 | 0.263 | 0.24 | 0.289 | 0.283 | 0.271 | 0.262 | 0.264 | 0.274
NCI-H322M | 0.624 | 0.613 | 0.574 | 0.695 | 0.592 | 0.252 | 0.259 | 0.257 | 0.255 | 0.244 | 0.261 | 0.267 | 0.288 | 0.561 | 0.445 | 0.515 | 0.54 | 0.531
NCI-H596 | 0.519 | 0.403 | 0.467 | 0.522 | 0.452 | 0.557 | 0.554 | 0.657 | 0.665 | 0.552 | 0.594 | 0.566 | 0.52 | 0.798 | 0.773 | 0.722 | 0.793 | 0.58
NCI-H647 | 0.177 | 0.157 | 0.153 | 0.174 | 0.167 | 0.155 | 0.117 | 0.18 | 0.226 | 0.129 | 0.142 | 0.162 | 0.208 | 0.538 | 0.38 | 0.457 | 0.486 | 0.533
NCI-H1666 | 0.94 | 0.798 | 0.819 | 0.836 | 0.868 | 0.794 | 0.724 | 0.772 | 0.795 | 0.698 | 0.765 | 0.68 | 0.683 | 0.792 | 0.665 | 0.835 | 0.765 | 0.783
LOU-NH91 | 0.354 | 0.346 | 0.346 | 0.399 | 0.373 | 0.617 | 0.496 | 0.513 | 0.57 | 0.5 | 0.576 | 0.567 | 0.68 | 0.829 | 0.735 | 0.75 | 0.76 | 0.742
EMC-BAC-2 | 0.427 | 0.423 | 0.431 | 0.458 | 0.394 | 0.337 | 0.522 | 0.329 | 0.326 | 0.304 | 0.368 | 0.325 | 0.353 | 0.917 | 0.83 | 0.902 | 0.889 | 0.84
NCI-H2085 | 0.958 | 0.859 | 0.803 | 0.907 | 0.962 | 0.212 | 0.221 | 0.225 | 0.265 | 0.237 | 0.226 | 0.238 | 0.204 | 0.509 | 0.632 | 0.527 | 0.613 | 0.595
HCC-78 | 0.948 | 0.83 | 0.91 | 0.9 | 0.923 | 0.36 | 0.345 | 0.444 | 0.406 | 0.384 | 0.374 | 0.336 | 0.919 | 0.788 | 0.697 | 0.744 | 1.02 | 0.669

Reference: the supplement of paper PMC10307832
